The values that follow come from patent publication US12338199B2, “Bis-octahydrophenanthrene carboxamides and protein conjugates thereof” (REGENERON PHARMACEUTICALS, INC., priority 2017, dated 2025).

The term IC50 denotes the midpoint of a concentration-inhibition curve. Broadly, the solubility is the dissolved amount per volume that the medium holds. A high value points to much dissolved substance.

≈ marks a conversion by molar mass, not a printed value.

For one data set, the target named is T1, LXRβ (Homo sapiens, UniProt P55055).
T1 sequence (P55055 1-460): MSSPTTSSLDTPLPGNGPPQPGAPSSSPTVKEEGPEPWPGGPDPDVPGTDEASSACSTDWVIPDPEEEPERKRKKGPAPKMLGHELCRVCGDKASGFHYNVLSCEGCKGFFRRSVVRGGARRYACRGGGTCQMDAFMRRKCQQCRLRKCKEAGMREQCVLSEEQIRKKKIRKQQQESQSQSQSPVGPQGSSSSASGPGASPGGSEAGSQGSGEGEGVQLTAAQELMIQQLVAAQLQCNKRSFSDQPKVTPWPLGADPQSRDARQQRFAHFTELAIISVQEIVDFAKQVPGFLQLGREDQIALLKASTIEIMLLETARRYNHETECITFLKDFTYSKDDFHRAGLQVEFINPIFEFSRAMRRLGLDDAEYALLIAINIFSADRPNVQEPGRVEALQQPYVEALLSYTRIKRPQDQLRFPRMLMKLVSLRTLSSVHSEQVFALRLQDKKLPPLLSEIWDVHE
Conditions: reported in Bioconjug Chem. 2015 26(11), 2216-22; cited from earlier work.

Another data set concerns the target T2, LXR beta (Homo sapiens, UniProt P55055).
T2 construct: LXR alpha or beta LBD-GST; purchased ThermoFisher PV4658
T2 sequence (P55055 222-460 limits assumed): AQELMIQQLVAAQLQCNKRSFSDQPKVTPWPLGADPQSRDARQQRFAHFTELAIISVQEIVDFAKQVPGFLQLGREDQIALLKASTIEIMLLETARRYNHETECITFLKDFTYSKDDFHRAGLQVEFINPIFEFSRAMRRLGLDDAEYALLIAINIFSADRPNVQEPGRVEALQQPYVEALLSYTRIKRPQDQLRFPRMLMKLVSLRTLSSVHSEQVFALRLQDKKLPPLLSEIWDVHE
Put plainly: LanthaScreen TR-FRET LXR beta Coactivator Assay (cell-free binding). Particulars: TR-FRET, 12-point curve; read-out: Cell free binding LXRβ IC50.

A further data set has as its target T3, LXR alpha (Homo sapiens, UniProt Q13133).
T3 construct: LXR alpha or beta LBD-GST; purchased ThermoFisher PV4655
T3 sequence (Q13133 209-447 limits assumed): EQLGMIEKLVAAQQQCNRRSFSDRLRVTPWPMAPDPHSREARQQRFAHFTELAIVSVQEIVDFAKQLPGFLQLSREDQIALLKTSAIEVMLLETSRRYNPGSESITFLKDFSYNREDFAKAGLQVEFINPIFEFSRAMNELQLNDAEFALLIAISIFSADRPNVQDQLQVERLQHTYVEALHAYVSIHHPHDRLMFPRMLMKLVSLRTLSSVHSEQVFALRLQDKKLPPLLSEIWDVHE
The data set can be described thus: LanthaScreen TR-FRET LXR alpha Coactivator Assay (cell-free binding). Particulars: TR-FRET, 12-point curve; read-out: Cell free binding LXRα IC50. On the technique in general: Time-resolved FRET reads energy transfer from a long-lived donor to a nearby acceptor.

The next data set addresses T4, LXRα (Homo sapiens, UniProt Q13133).
T4 sequence (Q13133 1-447): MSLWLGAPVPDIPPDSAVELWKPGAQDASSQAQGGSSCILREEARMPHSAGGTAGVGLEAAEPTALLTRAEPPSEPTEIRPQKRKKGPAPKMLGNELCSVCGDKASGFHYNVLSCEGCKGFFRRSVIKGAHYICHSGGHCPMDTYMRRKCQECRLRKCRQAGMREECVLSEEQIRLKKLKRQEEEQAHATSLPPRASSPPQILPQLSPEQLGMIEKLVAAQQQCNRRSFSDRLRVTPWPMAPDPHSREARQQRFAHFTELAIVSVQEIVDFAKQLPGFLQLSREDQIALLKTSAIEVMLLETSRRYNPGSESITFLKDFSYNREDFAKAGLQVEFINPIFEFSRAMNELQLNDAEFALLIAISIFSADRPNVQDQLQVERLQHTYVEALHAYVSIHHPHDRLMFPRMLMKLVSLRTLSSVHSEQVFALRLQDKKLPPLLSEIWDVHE
Conditions: reported in Bioconjug Chem. 2015 26(11), 2216-22; cited from earlier work.

In a further data set the test system is THP1/LXR-Luc cells. Put plainly: THP1/LXR-Luc luciferase reporter bioassay. Type of data set: cell-based. Particulars: Homo sapiens, THP-1, 48 hours. In short, it runs like this:
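THP1 cells stably carrying an LXR-response-element firefly luciferase reporter were seeded at 30,000/well in RPMI/10% FBS and given 3-fold dilutions (100 nM to 0.01 nM) for 48 or 72 h. Luminescence was read with One-Glo. EC50 came from a 4-parameter fit of a 10-point curve, and fold activation was taken relative to maximal free-payload activation.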
A general note: Reporter assays use an easily measured gene product as a stand-in for the process of interest.

A further data set is described as follows: Solubility in water. It is filed as physicochemical. Particulars: H2O. The procedure:
To a solution of compound LP2-6 (4.3 mg, 7.8 μmol) in anhydrous DMF (1 mL) was added HATU (3.0 mg, 7.8 μmol). The mixture was stirred at 10° C. for 10 minutes before compound LP2-5 (15 mg, 6.5 μmol) and DIPEA (1.7 mg, 13 μmol) was added. The mixture was stirred at RT for 2 hours until LP2-5 was totally consumed, as monitored by LCMS. […]

With `CCc1cnc2c(C(F)(F)F)cccc2c1-c1cccc(Oc2cccc(S(=O)(=O)N(C)CCN)c2)c1` [Compound 31, N-(2-Aminoethyl)-3-(3-(3-ethyl-8-(trifluoromethyl)quinolin-4-yl)phenoxy)-N-methylbenzenesulfonamide, reference compound], on LXRβ, the “binding affinity to LXRβ” value is listed as 12 nM. Moreover, the IC50 at LXR beta and on LXR alpha was below 10 nM each time. The “binding affinity to LXRα” value at LXRα is reported as 1.5 nM. Besides, the EC50 in the data set with THP1/LXR-Luc cells (read-out: Activation of THP1/LXR-Luc cells: EC50) lay within 10 to 100 nM. Further, in the data set with THP1/LXR-Luc cells (relative to maximum activation of free payload 9d, read-out: Activation of THP1/LXR-Luc cells: Fold of activation), the Emax was in the range of 25 to 75%.

Regarding `CC(C)[C@H](NC(=O)[C@@H](CCCCNC(=O)COC1CCCCCc2c1nnn2CC1OC2OC3C(CO)OC(OC4C(CO)OC(OC5C(CO)OC(OC6C(CO)OC(OC7C(CO)OC(OC8C(CO)OC(OC9C(CO)OC(OC1C(O)C2O)C(O)C9O)C(O)C8O)C(O)C7O)C(O)C6O)C(O)C5O)C(O)C4O)C(O)C3O)NC(=O)CCOCCOCCOCCOCCNC(=O)CCC(=O)N1Cc2ccccc2C#Cc2ccccc21)C(=O)N[C@@H](C)C(=O)Nc1ccc2c(c1)[C@@]1(C)CCC[C@](C)(C(=O)NC(=O)[C@@]3(C)CCC[C@]4(C)c5cc(O)ccc5CC[C@@H]34)[C@@H]1CC2` (stereo partly shown) [LP32], in the data set “Solubility in water”, the solubility was 75 µg/mL (≈ 26.3 µM).
